Source: patent US5424204A, “Method for stabilizing glucose 6-phosphate dehydrogenase with hydroxylamines, aldehyde scavengers, dimethylthiocarbamoyl chloride or 2-(2-aminoethylamino) ethanol” (Kyowa Medex Co., Ltd., priority 1993, dated 1995)
Structures can show the parent of a compound that is named as a salt.

Tested on: glucose 6-phosphate dehydrogenase
Test: Stabilization of glucose 6-phosphate dehydrogenase in a reagent for measuring the activity of creatine kinase (residual activity after storage)
Type: biochemical
Settings: 10 mM additive in reagent solution 1 (pH 6.6), activity immediately after preparation = 100%; for Residual activity after 3 months (%): stored at 10° C. for 3 months; for Residual Activity after 12 months (%): stored at 10° C. for 12 months

SMILES: NNC(=O)C(=O)NN [II-3, oxalyldihydrazide]
- Residual activity after 3 months (%): 88.5%
- Residual Activity after 12 months (%): 65.2%

SMILES: NNC(=O)Nc1ccccc1 [II-14, 4-phenylsemicarbazide]
- Residual activity after 3 months (%): 99.9%
- Residual Activity after 12 months (%): 86.5%

SMILES: CNO [Compound I-9, N-methylhydroxylamine]
- Residual activity after 3 months (%): 100.1%
- Residual Activity after 12 months (%): 80.3%

SMILES: Cl.NOCc1ccccc1 [Compound I-5, O-benzylhydroxylamine hydrochloride]
- Residual activity after 3 months (%): 96.8%
- Residual Activity after 12 months (%): 78.9%

SMILES: NO.NO.O=S(=O)(O)O [Compound I-2, hydroxylamine sulfate]
- Residual activity after 3 months (%): 99.8%
- Residual Activity after 12 months (%): 88.7%

SMILES: NNC(=O)c1ccccc1 [II-1, benzoylhydrazine]
- Residual activity after 3 months (%): 100.1%
- Residual Activity after 12 months (%): 87.6%

SMILES: CC(=O)NNC(N)=S [II-9, 1-acetylthiosemicarbazide]
- Residual activity after 3 months (%): 82.3%
- Residual Activity after 12 months (%): 45.6%

SMILES: CN(C)C(=S)Cl [III, dimethylthiocarbamoyl chloride]
- Residual activity after 3 months (%): 80.3%
- Residual Activity after 12 months (%): 43.2%

SMILES: CCOC(=O)NN [II-12, ethyl carbazate]
- Residual activity after 3 months (%): 102.2%
- Residual Activity after 12 months (%): 88.3%

SMILES: NNC(=O)c1cccnc1 [II-4, nicotinic acid hydrazide]
- Residual activity after 3 months (%): 70.3%
- Residual Activity after 12 months (%): 38.5%

SMILES: NNC(=O)c1cc2ccccc2cc1O [II-7, 3-hydroxy-2-naphthoenic acid hydrazide]
- Residual activity after 3 months (%): 89.7%
- Residual Activity after 12 months (%): 60.3%

SMILES: CC(C)=NNC(N)=S [II-16, acetone thiosemicarbazone]
- Residual activity after 3 months (%): 79.8%
- Residual Activity after 12 months (%): 41.5%

SMILES: CCNC(=S)NN [II-13, 4-ethyl-3-thiosemicarbazide]
- Residual activity after 3 months (%): 90.2%
- Residual Activity after 12 months (%): 62.1%

SMILES: Br.NNC1=NCCN1 [II-6, 2-hydrazino-2-imidazoline hydrobromide]
- Residual activity after 3 months (%): 89.2%
- Residual Activity after 12 months (%): 58.5%

SMILES: Cl.ONC1CCCCC1 [Compound I-13, N-cyclohexylhydroxylamine hydrochloride]
- Residual activity after 3 months (%): 92.1%
- Residual Activity after 12 months (%): 80.2%

SMILES: O=C(c1ccccc1)N(O)c1ccccc1 [Compound I-6, N-benzoyl-N-phenylhydroxylamine]
- Residual activity after 3 months (%): 80.5%
- Residual Activity after 12 months (%): 30.3%

SMILES: NCCNCCO [IV, 2-(2-aminoethylamino) ethanol]
- Residual activity after 3 months (%): 98.7%
- Residual Activity after 12 months (%): 81.1%

SMILES: Cc1ccccc1N(O)C(=O)c1ccccc1 [Compound I-7, N-benzoyl-N-(2-methylphenyl)hydroxylamine]
- Residual activity after 3 months (%): 81.5%
- Residual Activity after 12 months (%): 25.6%

SMILES: Cl.NO [Compound I-1, hydroxylamine hydrochloride]
- Residual activity after 3 months (%): 100.2%
- Residual Activity after 12 months (%): 85.9%

SMILES: CON [Compound I-10, O-methylhydroxylamine]
- Residual activity after 3 months (%): 99.7%
- Residual Activity after 12 months (%): 82.3%

SMILES: CC(C)NNC(=O)c1ccncc1 [II-15, iproniazide]
- Residual activity after 3 months (%): 65.8%
- Residual Activity after 12 months (%): 20.1%

SMILES: Cl.NOCC(=O)O [Compound I-4, carboxymethoxylamine hydrochloride]
- Residual activity after 3 months (%): 99.9%
- Residual Activity after 12 months (%): 88.9%

SMILES: Cc1cccc(N(O)C(=O)C=Cc2ccccc2)c1C [Compound I-11, N-cinnamoyl-N-2,3-xylylhydroxylamine]
- Residual activity after 3 months (%): 79.6%
- Residual Activity after 12 months (%): 23.6%

SMILES: COC(=O)NN [II-8, methyl carbazate]
- Residual activity after 3 months (%): 99.8%
- Residual Activity after 12 months (%): 86.5%

SMILES: NO.O=C(O)C(=O)O [Compound I-3, hydroxylamine oxalate]
- Residual activity after 3 months (%): 98.2%
- Residual Activity after 12 months (%): 89.2%

SMILES: CC(C)(C)NO [Compound I-12, N-(tert-butyl)hydroxylamine]
- Residual activity after 3 months (%): 75.5%
- Residual Activity after 12 months (%): 22.2%

SMILES: CCOC(=O)CNN [II-5, ethylhydrazinoaceate hydrochloride]
- Residual activity after 3 months (%): 75.4%
- Residual Activity after 12 months (%): 28.3%

SMILES: O=C(C=Cc1ccccc1)N(O)c1ccccc1 [Compound I-8, N-cinnamoyl-N-phenylhydroxylamine]
- Residual activity after 3 months (%): 90.4%
- Residual Activity after 12 months (%): 44.5%

SMILES: NC(=S)C(N)=S [II-17, dithiooxyamide]
- Residual activity after 3 months (%): 75.2%
- Residual Activity after 12 months (%): 32.3%
